In patent publication US8106047B2, “Triazolophthalazines” (NYCOMED GmbH, priority 2005, dated 2012):

What was measured:
HUVEC monolayers = assay: Inhibition of macromolecule (HRP) permeability of thrombin-stimulated HUVEC monolayers; assay type: cell-based, human; details: Homo sapiens, 1 h; HUVEC on Transwells, 1 μM RP73401, 10 μM Motapizone, 1 mM SNP or 100 nM ANP, 1 U/ml thrombin, HRP passage after 60 min; read-out: Inhibition of SNP- or ANP-induced permeability, −log IC50 [mol/l] (converted)
Procedure: Method to Assess Inhibition of Macromolecule Permeability of HUVEC Monolayers
The procedure to measure macromolecule permeability of endothelial cell monolayers followed the method described by Langeler & van Hinsbergh (1988) with modifications. Human umbilical vein endothelial cells were isolated from umbilical cords according to standard procedures (Jaffe et al. 1973) and cultured in endothelial cell basal medium (EBM) supplemented with 2% FCS, 0.5 ng/ml VEGF, 10 ng/ml bFGF, 5 ng/ml EGF, 20 ng/ml Long R3 IGF-1, 0.2 μg/ml hydrocortisone, 1 μg/ml ascorbic acid, 22.5 μg/ml heparin, 50 μg/ml gentamicin, 50 ng/ml amphotericin B (EGM2 purchased from Promocell GmbH, Heidelberg, Germany). At confluency, cells were trypsinized and replated at 73000 cells per well on 3 μm polycarbonate filter Transwell inserts (Costar GmbH, Bodenheim, Germany) precoated with 10 μg cm^2−1 Fibronectin (Sigma, Taufkirchen, Germany). HUVECs were cultured in EGM2 (100 μl in the upper wells and 600 μl in the lower wells) over four days prior the experiments and medium was changed every other day. At the day of the experiment culture medium was replaced by M199 with 1% human serum albumin. Endothelial cells were preincubated with cyclic nucleotide modifiers (the selective PDE3 inhibitor motapizone, the selective PDE4 inhibitor RP73401, the cGMP generators ANP or SNP and PDE2 inhibitors) for 15 min. HUVECs were then stimulated with Thrombin (1 U ml^−1) (Sigma, Taufkichen, Germany) and horsh radish peroxidase (5 μg/ml) (Sigma, Taufkirchen, Germany) as the macromolecule marker protein was added to the upper wells. Following 1 h incubation time Transwells were removed and the activity of horsh radish peroxidase that penetrated the endothelial cell monolayer was measured in the lower wells with the 3,3′,5,5′-tetramethylbenzidine liquid substrate system from Sigma (Taufkirchen, Germany).
In parallel, compounds according to the invention can inhibit Thrombin-induced permeability of HUVEC monolayers for horsh radish peroxidase (HRP) as a macromolecule marker. […] The concentration-dependent inhibition of HRP permeability at different concentrations was assessed from the percent inhibition in the presence and absence of the PDE2 inhibitors and in the presence of 1 μM RP73401, 10 μM Motapizone and 100 nM ANP.
Inhibition of SNP- or ANP-Induced Permeability of HUVEC Monolayers:
HUVEC cells on 3 μm polycarbonate filters (Transwells) were preincubated with 1 μM RP73401 (to block PDE4) and 10 μM Motapizone (to block PDE3), 1 mM SNP or 100 nM ANP and test sample over 15 min and then stimulated with 1 U/ml thrombin. HRP passage into the lower wells was assessed after 60 min.

| Structure (SMILES) | melting point | IC50 (HUVEC monolayers) [nM] |
| --- | --- | --- |
| COc1ccc(-c2nnc3c4ccccc4c(Nc4cccc(S(=O)(=O)N5CCCC5)c4)nn23)cc1 [Compound 29, [3-(4-Methoxy-phenyl)-[1,2,4]triazolo[3,4-a]phthalazin-6-yl]-[3-(pyrrolidine-1-sulfonyl)-phenyl]-amine] | 292 to 295 °C | 0.501 to 126 |
| CN(C)c1ccccc1-c1nnc2c3ccccc3c(Nc3cccc(NS(=O)(=O)N(C)C)c3)nn12 [Compound 26] | 235 to 239 °C | 0.501 to 126 |
| CN(C)S(=O)(=O)Nc1cccc(Nc2nn3c(-c4ccccc4F)nnc3c3ccccc23)c1 [Compound 31] | 252 to 256 °C | 0.501 to 126 |
| COc1ccc(-c2nnc3c4ccccc4c(Nc4ccc(S(=O)(=O)N5CCOCC5)cc4)nn23)cc1 [Compound 22, [3-(4-Methoxyphenyl)-[1,2,4]triazolo[3,4-a]phthalazin-6-yl]-[4-(morpholine-4-sulfonyl)-phenyl]-amine] | 330 °C | 0.501 to 126 |
| COc1ccc(-c2nnc3c4ccccc4c(Nc4ccc(NS(=O)(=O)N5CCOCC5)cc4)nn23)cc1 [Compound 6, Morpholine-4-sulfonic acid {4-[3-(4-methoxy-phenyl)-[1,2,4]triazolo[3,4-a]phthalazin-6-ylamino]-phenyl}-amide] | 266 to 270 °C | 0.501 to 126 |
| COc1ccc(-c2nnc3c4ccccc4c(Nc4cccc(S(=O)(=O)N5CCCCC5)c4)nn23)cc1 [Compound 30, [3-(4-Methoxy-phenyl)-[1,2,4]triazolo[3,4-a]phthalazin-6-yl]-[3-(piperidine-1-sulfonyl)-phenyl]-amine] | 275 to 280 °C | 0.501 to 126 |
| COc1ccccc1-c1nnc2c3ccccc3c(Nc3cccc(NS(=O)(=O)N(C)C)c3)nn12 [Compound 32] | 229 to 233 °C | 0.501 to 126 |

Now from value to compound, other results behind:

| melting point | Structure (SMILES) | IC50 (HUVEC monolayers) [nM] |
| --- | --- | --- |
| > 350 °C | COc1ccc(-c2nnc3c4ccccc4c(Nc4ccc(S(=O)(=O)Nc5ncccn5)cc4)nn23)cc1 [Compound 21, 4-[3-(4-Methoxyphenyl)-[1,2,4]triazolo[3,4-a]phthalazin-6-ylamino]-N-pyrimidin-2-yl-benzenesulfonamide] | 0.501 to 126 |
| 318 to 320 °C | COc1ccc(-c2nnc3c4ccccc4c(Nc4ccc(NS(C)(=O)=O)cc4)nn23)cc1 [Compound 3, N-{4-[3-(4-Methoxy-phenyl)-[1,2,4]triazolo[3,4-a]phthalazin-6-ylamino]-phenyl}-methanesulfonamide] | 0.501 to 126 |
| 351 to 353 °C | COc1ccc(-c2nnc3c4ccccc4c(Nc4ccc(NS(=O)(=O)c5cccs5)cc4)nn23)cc1 [Compound 1, Thiophene-2-sulfonic acid {4-[3-(4-methoxy-phenyl)-[1,2,4]triazolo[3,4-a]phthalazin-6-ylamino]-phenyl}-amide] | 0.501 to 126 |
| 328 to 332 °C | COc1ccc(-c2nnc3c4ccccc4c(Nc4cccc(NS(=O)(=O)c5cccc(OC)c5)c4)nn23)cc1 [Compound 14, 3-Methoxy-N-{3-[3-(4-methoxy-phenyl)-[1,2,4]triazolo[3,4-a]phthalazin-6-ylamino]-phenyl}-benzenesulfonamide] | 0.501 to 126 |
| 328 to 331 °C (dec.) | COc1ccc(-c2nnc3c4ccccc4c(Nc4cccc(NS(=O)(=O)c5ccc(OC)cc5)c4)nn23)cc1 [Compound 10, 4-Methoxy-N-{3-[3-(4-methoxy-phenyl)-[1,2,4]triazolo[3,4-a]phthalazin-6-ylamino]-phenyl}-benzenesulfonamide] | 0.501 to 126 |
| 327 to 331 °C | COc1ccc(-c2nnc3c4ccccc4c(Nc4cccc(NS(=O)(=O)c5cccs5)c4)nn23)cc1 [Compound 17, Thiophene-2-sulfonic acid {3-[3-(4-methoxy-phenyl)-[1,2,4]triazolo[3,4-a]phthalazin-6-ylamino]-phenyl}-amide] | 0.501 to 126 |
| 304.9 °C | COc1ccc(-c2nnc3c4ccccc4c(Nc4cccc(NS(C)(=O)=O)c4)nn23)cc1 [Compound 19, N-{3-[3-(4-Methoxyphenyl)-[1,2,4]triazolo[3,4-a]phthalazin-6-ylamino]-phenyl}-methanesulfonamide] | 0.501 to 126 |
| 289 to 292 °C | COc1ccc(-c2nnc3c4ccccc4c(Nc4cccc(NS(=O)(=O)Cc5ccccc5)c4)nn23)cc1 [Compound 15, N-{3-[3-(4-Methoxy-phenyl)-[1,2,4]triazolo[3,4-a]phthalazin-6-ylamino]-phenyl}-1-phenyl-methanesulfonamide] | 0.501 to 126 |
